Our source for the inhibition values is paper PMC6934184, “Selective DNA-PKcs inhibition extends the therapeutic index of localized radiotherapy and chemotherapy” (The Journal of Clinical Investigation, 2019).

The experiment concerns the target T1, DAPK1 (Homo sapiens, UniProt P53355).
T1 construct: purchased Thermo Fisher Scientific (Life Technologies) SelectScreen
The experiment can be described thus: SelectScreen Adapta. In kind it is biochemical. Summed up: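 NU5455 was profiled across the SelectScreen Broad panel of kinase activity and binding assays. Z'LYTE reactions such as CSF1R ran at apparent Km ATP, while the Adapta CAMK1 assay used ATP listed as 10. Values are given as percent.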

T1 sequence (P53355 whole entry): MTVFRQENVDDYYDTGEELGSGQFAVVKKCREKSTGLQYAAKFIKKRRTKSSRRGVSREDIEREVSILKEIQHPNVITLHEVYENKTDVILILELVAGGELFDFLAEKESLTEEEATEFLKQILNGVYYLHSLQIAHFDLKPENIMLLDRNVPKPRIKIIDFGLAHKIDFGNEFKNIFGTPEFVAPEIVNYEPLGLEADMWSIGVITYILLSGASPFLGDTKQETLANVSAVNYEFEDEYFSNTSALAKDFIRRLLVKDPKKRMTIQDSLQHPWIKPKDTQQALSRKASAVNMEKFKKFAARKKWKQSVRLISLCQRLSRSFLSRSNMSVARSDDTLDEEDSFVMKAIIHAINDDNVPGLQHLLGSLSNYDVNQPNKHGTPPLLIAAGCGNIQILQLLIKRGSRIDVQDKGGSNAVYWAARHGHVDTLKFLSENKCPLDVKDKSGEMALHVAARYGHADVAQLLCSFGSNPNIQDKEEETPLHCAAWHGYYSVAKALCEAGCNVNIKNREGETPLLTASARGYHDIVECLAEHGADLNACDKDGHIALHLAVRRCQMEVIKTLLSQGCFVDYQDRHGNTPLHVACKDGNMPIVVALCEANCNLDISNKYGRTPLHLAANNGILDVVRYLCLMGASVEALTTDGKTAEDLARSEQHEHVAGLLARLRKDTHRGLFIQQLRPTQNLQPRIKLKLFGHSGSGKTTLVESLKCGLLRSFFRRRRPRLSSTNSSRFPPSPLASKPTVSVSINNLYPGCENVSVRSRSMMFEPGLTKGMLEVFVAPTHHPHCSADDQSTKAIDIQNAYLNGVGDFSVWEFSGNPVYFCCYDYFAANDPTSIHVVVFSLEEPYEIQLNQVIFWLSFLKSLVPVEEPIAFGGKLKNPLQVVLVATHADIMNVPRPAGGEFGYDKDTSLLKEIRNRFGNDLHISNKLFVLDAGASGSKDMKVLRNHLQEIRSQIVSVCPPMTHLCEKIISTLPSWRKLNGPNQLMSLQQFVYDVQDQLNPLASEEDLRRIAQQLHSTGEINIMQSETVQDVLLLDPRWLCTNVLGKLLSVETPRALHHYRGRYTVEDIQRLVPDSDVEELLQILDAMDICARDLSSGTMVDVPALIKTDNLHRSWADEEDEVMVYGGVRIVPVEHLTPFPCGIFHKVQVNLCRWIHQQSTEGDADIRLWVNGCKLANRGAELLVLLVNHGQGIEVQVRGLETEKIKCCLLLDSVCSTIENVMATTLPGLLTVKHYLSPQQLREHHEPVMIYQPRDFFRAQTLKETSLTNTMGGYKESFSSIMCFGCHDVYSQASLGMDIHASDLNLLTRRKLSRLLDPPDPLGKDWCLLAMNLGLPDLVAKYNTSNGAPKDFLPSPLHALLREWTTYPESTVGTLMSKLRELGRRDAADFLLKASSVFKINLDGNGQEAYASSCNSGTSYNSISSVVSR

Broadly, the inhibition is the change of the read-out against control, counted positive when it falls. The molecule `CN(C(=O)CN1CCOCC1)c1ccc2sc3c(-c4cccc5c(=O)cc(N6CC7CCC(C6)O7)oc45)cccc3c2c1` [NU5455] registered an inhibition at 1 µM of 1.6%.
